# Laboratory results published in ChEMBL document CHEMBL1201862, “PubChem BioAssay data set” (2004).
# Calls of active or inactive are those of the source.
# Legend:
# INS1 = assay: INS-1E survival protection against cytokine death – cell-based, luminescence, retest, dose response (AID 449756); assay type: functional; conditions: Rattus norvegicus;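 note: cell death triggered by IL-1 beta plus TNF-alpha plus IFN-gamma mixture; protective hits raise ATP signal compared with cytokine alone wells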
# [1] = molecular target: T1, Neuropeptide Y receptor type 2 (Homo sapiens, UniProt P49146); assay: IC50 for human NPY-Y2 blockade – cell-based, counter-screen for NPY-Y1 antagonist project, dose response (AID 1278); assay type: functional
# T1 sequence (P49146 whole entry): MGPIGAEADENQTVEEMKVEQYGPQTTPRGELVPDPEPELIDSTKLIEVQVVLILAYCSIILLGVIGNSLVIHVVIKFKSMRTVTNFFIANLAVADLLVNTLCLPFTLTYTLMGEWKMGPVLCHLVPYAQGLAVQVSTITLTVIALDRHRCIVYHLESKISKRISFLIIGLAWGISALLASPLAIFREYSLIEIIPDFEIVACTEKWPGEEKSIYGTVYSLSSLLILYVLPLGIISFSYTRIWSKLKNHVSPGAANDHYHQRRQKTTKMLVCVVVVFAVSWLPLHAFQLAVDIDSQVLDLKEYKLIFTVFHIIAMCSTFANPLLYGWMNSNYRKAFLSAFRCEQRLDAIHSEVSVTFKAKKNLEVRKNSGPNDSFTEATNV
# [2] = molecular target: T2, Neuropeptide Y receptor type 1 (Homo sapiens, UniProt P25929); assay: IC50 of human NPY-Y1 blockers – cell-based, dose response (AID 1277); assay type: functional
# T2 sequence (P25929 whole entry): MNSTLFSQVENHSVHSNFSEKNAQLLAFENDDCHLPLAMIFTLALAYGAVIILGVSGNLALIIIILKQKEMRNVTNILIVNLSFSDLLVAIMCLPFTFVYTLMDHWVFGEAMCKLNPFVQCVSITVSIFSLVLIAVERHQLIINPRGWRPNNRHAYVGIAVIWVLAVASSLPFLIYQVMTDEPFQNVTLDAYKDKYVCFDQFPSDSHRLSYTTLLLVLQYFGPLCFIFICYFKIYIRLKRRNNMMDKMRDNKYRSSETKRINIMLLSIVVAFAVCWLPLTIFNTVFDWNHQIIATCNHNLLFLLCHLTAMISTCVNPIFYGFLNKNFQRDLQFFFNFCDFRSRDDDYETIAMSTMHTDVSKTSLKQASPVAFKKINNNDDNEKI
# [3] = alpha-synuclein stem-loop luciferase translation blockers – H4 neuroglioma cells, luminescence, confirmation (AID 1988); assay type: functional, cell-based
# [4] = Luminescence Cell-Based Dose Response HTS to Identify Inhibitors of 5'UTR Stem-Loop Driven Prion Protein mRNA Translation in H4 Neuroglioblastoma Cells. [Related pubchem assays: 1827 (Project Summary), 1813 (Primary HTS)]; assay type: functional
# [5] = molecular target: Mitogen-activated protein kinase 10 (Homo sapiens, UniProt P53779); assay: Dose response biochemical screening assay for inhibitors of c-Jun N-Terminal Kinase 3 (JNK3). [Related pubchem assays: 746 ]
# Chain of Mitogen-activated protein kinase 10 (P53779 whole entry): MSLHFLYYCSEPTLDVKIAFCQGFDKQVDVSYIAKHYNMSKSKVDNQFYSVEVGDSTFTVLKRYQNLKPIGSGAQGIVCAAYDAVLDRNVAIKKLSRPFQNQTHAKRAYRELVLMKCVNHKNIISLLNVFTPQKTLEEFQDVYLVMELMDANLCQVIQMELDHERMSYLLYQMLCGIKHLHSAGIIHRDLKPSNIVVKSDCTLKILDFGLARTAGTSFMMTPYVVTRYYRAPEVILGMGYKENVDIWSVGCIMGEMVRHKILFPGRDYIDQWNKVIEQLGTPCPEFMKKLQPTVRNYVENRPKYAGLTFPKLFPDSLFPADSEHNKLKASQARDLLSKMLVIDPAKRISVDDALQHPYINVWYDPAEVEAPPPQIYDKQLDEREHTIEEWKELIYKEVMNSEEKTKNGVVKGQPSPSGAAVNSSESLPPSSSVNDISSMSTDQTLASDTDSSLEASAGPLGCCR
# [6] = luciferase reporter signal suppression in cells – H4 neuroglioma cells, luminescence, dose response (AID 1990); assay type: functional, cell-based
# Fatty acid synthase [7] = molecular target: T3, Fatty acid synthase (Homo sapiens, UniProt P49327); assay: inhibition of human FAS-TE enzyme activity – biochemical, endpoint fluorescence intensity, uHTS hits, dose response (AID 624327); assay type: functional;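 note: fluorescence from hydrolysis of an O-methyl fluorescein acyl ester substrate by the enzyme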
# T3 sequence (P49327 whole entry): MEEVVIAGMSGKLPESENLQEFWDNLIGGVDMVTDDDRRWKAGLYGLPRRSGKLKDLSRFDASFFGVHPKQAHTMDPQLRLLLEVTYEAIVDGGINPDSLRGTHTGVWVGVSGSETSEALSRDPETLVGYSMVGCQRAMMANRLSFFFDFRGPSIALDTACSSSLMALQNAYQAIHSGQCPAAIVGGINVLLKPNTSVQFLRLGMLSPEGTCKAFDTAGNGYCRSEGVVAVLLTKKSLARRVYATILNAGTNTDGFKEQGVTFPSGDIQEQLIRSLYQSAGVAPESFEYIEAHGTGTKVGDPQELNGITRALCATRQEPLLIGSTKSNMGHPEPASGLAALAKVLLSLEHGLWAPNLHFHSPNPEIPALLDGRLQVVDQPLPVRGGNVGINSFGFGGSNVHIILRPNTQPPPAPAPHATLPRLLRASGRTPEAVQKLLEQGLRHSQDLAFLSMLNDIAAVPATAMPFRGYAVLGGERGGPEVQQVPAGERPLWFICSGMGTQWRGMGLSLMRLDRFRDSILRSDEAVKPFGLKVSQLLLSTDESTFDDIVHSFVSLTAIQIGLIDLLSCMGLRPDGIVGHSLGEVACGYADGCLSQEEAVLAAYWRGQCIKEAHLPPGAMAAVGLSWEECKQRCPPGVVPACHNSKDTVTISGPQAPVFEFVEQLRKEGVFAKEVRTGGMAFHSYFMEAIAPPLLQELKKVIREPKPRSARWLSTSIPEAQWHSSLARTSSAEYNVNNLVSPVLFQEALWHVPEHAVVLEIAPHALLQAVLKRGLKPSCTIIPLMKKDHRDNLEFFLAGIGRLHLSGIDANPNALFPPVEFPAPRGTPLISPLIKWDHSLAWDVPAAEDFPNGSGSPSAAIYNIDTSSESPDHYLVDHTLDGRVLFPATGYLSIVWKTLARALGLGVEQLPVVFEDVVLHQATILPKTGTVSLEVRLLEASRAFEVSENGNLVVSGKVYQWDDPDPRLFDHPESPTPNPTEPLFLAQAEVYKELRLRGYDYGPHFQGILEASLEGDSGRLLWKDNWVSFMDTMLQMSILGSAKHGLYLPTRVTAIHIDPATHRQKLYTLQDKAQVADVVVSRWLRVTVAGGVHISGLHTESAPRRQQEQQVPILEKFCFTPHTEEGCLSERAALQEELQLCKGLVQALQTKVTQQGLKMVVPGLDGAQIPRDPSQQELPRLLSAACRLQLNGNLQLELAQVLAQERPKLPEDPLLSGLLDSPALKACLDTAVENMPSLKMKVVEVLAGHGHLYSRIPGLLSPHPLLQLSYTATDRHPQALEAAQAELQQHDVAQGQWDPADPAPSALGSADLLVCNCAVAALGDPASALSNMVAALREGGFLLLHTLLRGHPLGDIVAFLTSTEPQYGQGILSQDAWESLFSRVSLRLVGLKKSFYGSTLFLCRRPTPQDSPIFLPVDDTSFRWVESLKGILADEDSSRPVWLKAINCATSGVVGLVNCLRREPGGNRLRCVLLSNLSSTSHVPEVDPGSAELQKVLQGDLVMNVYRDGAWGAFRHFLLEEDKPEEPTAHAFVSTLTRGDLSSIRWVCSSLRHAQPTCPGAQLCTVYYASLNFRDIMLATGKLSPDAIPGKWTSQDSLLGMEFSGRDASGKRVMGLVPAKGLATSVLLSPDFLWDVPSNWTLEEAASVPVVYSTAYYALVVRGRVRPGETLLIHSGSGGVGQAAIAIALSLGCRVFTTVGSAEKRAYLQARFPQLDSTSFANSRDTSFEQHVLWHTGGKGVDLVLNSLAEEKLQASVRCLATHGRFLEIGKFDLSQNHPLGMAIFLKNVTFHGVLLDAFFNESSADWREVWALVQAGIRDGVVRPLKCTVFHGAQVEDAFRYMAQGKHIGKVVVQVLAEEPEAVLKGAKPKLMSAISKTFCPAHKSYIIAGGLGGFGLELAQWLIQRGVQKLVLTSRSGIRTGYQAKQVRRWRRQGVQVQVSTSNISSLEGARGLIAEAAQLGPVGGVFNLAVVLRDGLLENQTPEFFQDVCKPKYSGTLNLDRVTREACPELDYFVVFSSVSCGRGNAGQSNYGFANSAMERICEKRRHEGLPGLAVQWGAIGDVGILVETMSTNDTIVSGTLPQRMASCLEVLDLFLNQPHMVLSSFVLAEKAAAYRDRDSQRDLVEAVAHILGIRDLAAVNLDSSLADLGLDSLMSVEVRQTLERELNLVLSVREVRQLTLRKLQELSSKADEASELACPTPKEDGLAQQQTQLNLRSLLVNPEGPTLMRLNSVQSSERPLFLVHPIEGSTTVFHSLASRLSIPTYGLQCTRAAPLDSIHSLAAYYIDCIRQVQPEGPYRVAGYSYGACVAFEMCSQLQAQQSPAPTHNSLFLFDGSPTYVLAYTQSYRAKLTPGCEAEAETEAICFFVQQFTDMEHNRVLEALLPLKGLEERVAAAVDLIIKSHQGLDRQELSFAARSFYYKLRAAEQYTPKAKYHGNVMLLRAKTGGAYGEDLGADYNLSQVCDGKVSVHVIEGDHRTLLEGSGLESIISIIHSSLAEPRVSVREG
# Fatty acid synthase [8] = molecular target: T3, Fatty acid synthase; assay: inhibition of human FAS-TE enzyme activity – biochemical, kinetic fluorescence intensity, dose response (AID 624326); assay type: functional;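 note: rate of fluorescence rise from hydrolysis of a fluorogenic O-methyl fluorescein ester substrate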
# [9] = molecular target: T4, Aryl hydrocarbon receptor (Homo sapiens, UniProt P35869); assay: Luminescence-based cell-based high throughput dose response assay for activators of the Aryl Hydrocarbon Receptor (AHR). [Related pubchem assays: 2796 (Primary screen (AHR activators in singlicate)), 2845 (Confirmation screen (AHR activators in triplicate)), 434939 (Counterscreen (PXR activators in triplicate)), 2804 (Summary (AHR activators))]; assay type: ADME
# T4 sequence (P35869 whole entry): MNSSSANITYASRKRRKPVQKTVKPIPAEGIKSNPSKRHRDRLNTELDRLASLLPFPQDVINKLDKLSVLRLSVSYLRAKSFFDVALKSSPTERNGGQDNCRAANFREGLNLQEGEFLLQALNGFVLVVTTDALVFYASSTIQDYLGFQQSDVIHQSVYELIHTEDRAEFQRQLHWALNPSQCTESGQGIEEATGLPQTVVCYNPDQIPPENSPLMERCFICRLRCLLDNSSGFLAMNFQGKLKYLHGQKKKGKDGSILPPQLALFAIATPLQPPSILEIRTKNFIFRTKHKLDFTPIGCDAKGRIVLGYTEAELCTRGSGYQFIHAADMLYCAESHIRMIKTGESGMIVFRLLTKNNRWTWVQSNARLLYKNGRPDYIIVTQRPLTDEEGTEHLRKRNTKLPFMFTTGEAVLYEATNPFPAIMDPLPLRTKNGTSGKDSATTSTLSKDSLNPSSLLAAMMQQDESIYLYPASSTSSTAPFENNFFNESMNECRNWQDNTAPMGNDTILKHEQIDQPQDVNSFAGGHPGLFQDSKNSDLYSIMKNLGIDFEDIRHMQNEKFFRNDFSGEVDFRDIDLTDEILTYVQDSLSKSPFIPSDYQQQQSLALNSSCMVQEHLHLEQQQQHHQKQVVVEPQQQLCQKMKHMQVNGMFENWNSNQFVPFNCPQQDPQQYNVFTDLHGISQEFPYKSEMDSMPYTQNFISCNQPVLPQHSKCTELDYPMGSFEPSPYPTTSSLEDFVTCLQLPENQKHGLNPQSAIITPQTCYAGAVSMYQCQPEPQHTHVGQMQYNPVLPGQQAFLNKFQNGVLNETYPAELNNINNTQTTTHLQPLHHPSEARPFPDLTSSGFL
# [10] = molecular target: T5, Heat shock factor protein 1 (Mus musculus, UniProt P38532); assay: decrease of HSF1-responsive luciferase luminescence – cell-based, NIH3T3, dose retest, confirmation (AID 2382); assay type: functional;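 note: NIH3T3 fibroblasts with HSF1-driven luciferase reporter stressed by proteasome inhibitor MG132; luminescence from HSF1-driven luciferase expression after 8 hours of MG132 stress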
# T5 sequence (P38532 whole entry): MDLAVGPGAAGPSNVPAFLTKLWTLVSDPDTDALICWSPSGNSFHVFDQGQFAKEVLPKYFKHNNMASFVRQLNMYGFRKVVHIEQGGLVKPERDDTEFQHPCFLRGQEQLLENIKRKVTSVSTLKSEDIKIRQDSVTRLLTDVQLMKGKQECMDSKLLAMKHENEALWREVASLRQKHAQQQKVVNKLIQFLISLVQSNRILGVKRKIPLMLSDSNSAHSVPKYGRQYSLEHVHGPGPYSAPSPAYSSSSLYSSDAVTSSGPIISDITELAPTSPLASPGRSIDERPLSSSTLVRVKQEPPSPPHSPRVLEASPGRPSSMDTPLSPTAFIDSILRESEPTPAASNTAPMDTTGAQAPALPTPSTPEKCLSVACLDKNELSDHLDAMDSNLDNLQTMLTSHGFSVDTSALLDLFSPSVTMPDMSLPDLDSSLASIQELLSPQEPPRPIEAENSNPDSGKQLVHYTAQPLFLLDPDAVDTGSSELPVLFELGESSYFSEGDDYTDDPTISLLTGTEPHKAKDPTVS
# Ephrin type-A receptor 4 = Ephrin type-A receptor 4 (Mus musculus, UniProt Q03137); assay: EphA4 ligand-binding antagonists – biochemical, colorimetric, mouse EphA4, primary screen (AID 689); assay type: functional
# Chain of Ephrin type-A receptor 4 (Q03137 whole entry): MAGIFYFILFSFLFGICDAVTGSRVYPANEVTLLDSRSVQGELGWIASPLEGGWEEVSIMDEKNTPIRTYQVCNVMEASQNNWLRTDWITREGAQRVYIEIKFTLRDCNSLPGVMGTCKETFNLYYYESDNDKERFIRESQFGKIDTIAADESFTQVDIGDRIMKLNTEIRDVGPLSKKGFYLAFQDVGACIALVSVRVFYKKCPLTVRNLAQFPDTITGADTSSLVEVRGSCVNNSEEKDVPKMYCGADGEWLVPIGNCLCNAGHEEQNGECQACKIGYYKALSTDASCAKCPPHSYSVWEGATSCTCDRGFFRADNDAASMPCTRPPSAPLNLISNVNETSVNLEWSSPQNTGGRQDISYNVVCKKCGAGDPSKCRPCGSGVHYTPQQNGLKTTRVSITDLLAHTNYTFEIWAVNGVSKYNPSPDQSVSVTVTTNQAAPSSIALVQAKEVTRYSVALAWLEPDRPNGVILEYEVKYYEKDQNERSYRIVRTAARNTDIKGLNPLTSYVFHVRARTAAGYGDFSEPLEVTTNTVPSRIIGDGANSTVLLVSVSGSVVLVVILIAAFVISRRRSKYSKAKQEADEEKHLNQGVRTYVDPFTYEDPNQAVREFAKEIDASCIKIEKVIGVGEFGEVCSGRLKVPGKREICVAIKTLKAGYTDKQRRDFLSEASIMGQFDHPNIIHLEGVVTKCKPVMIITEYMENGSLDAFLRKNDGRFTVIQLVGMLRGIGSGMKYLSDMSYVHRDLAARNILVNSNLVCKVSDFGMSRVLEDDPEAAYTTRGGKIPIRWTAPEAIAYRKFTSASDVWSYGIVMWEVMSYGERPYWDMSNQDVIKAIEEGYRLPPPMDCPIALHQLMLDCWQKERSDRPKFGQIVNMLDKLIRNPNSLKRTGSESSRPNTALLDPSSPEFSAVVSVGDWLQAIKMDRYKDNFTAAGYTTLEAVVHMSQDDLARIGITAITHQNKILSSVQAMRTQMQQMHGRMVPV
# Estrogen receptor beta [11] = molecular target: T6, Estrogen receptor beta (Homo sapiens, UniProt Q92731);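 note: recombinant ER-beta bound to coactivator SRC1 peptide in presence of estradiol agonist; inhibitors block coactivator peptide binding and lower the FRET signal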
# T6 sequence (Q92731 whole entry): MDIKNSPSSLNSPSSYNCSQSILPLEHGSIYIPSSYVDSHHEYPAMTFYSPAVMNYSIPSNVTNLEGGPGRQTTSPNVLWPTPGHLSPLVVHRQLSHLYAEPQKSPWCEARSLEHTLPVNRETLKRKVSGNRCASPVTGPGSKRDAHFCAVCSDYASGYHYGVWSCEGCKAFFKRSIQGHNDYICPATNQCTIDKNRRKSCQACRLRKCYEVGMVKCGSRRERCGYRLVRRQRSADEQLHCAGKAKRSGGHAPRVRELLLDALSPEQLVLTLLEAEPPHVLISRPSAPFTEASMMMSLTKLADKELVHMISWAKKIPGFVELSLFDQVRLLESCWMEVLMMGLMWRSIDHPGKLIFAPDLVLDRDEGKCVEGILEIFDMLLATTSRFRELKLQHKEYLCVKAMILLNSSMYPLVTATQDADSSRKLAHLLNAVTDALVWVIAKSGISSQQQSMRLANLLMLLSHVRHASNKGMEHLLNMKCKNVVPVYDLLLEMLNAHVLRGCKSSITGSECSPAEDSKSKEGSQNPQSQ
# Vero = assay: Vero cell viability after compound exposure – synthesized analogs, set II, cytotoxicity control for West Nile virus antiviral project, SAR follow-up (AID 2402); assay type: functional; conditions: Chlorocebus sabaeus
# Estrogen receptor beta [12] = molecular target: T6, Estrogen receptor beta; assay: blockers of SRC-3 recruitment to ERβ – biochemical, ELISA, streptavidin-HRP readout, orthogonal assay, confirmation (AID 1060)
# Protein RecA = molecular target: T7, Protein RecA (Mycobacterium tuberculosis, UniProt P9WHJ3); assay: Fluorescence Cell-Free Homogeneous Dose Retest to Identify Inhibitors of RecA-Intein Splicing Activity. [Related pubchem assays (depositor defined):AID2097, AID2223, AID489010, AID492950]; assay type: functional
# T7 sequence (P9WHJ3 whole entry): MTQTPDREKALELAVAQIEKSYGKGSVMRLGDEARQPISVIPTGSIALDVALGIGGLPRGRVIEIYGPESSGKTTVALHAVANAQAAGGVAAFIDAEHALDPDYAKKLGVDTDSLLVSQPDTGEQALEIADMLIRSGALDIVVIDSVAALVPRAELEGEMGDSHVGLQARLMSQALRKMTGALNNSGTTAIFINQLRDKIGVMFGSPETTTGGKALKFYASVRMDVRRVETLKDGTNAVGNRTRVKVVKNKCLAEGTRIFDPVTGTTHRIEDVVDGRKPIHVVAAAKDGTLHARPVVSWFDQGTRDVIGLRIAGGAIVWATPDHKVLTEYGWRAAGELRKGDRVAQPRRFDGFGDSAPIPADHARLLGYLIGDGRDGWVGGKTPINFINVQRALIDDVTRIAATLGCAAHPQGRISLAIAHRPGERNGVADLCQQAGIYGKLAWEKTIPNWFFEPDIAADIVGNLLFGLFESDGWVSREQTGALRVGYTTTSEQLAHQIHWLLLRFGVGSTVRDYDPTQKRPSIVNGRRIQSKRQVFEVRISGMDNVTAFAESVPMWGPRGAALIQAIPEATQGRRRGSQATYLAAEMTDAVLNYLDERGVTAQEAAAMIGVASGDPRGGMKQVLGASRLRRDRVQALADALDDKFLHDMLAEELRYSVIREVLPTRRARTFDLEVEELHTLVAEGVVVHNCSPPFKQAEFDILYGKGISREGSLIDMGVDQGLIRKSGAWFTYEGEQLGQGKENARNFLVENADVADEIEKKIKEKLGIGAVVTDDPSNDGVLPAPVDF
# [13] = molecular target: T8, Sentrin-specific protease 8 (Homo sapiens, UniProt Q96LD8); assay type: functional
# T8 sequence (Q96LD8 whole entry): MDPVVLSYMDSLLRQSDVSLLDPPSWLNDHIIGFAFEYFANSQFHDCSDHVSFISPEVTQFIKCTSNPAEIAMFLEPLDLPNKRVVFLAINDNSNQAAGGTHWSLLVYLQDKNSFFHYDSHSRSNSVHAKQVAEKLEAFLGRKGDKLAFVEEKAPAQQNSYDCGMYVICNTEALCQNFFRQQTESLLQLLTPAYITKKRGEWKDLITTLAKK
# [14] = molecular target: T9, Replicative DNA helicase DnaB (Mycobacterium tuberculosis, UniProt P9WMR3); assay: DnaB intein splicing inhibitors, dose response, biochemical, cell-free fluorescence (AID 449749); assay type: functional
# T9 sequence (P9WMR3 whole entry): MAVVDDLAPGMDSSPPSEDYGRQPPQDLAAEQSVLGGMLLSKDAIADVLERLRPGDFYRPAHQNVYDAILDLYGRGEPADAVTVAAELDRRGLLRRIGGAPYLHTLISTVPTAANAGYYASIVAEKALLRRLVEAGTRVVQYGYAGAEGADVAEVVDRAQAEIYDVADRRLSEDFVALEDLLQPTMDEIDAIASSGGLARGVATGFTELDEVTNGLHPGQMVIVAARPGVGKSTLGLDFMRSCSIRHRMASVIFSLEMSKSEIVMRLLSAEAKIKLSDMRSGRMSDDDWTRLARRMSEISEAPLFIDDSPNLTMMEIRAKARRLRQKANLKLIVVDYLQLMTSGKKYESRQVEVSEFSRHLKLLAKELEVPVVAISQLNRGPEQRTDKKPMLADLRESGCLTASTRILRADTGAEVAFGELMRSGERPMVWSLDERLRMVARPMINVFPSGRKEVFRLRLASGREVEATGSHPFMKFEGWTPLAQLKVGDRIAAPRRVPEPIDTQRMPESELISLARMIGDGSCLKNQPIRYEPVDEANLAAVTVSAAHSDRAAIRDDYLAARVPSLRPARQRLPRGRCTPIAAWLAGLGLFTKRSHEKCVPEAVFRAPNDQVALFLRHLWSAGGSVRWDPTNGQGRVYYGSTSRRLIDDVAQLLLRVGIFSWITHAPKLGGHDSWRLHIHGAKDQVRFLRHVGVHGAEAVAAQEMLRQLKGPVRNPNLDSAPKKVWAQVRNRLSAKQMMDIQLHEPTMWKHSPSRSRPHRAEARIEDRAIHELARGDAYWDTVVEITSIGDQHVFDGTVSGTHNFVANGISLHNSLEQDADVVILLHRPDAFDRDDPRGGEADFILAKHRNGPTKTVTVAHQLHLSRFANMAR
# [15] = molecular target: T8, Sentrin-specific protease 8; assay type: functional; remark: listed apart in the source
smiles,measurement,setting,value
CC(=O)OC1COC(OC2C(O)C(C)OC(OC3C(OC4CCC5(C)C(CCC6(C)C5CC=C5C7CC(C)(C)CCC7(C(=O)O)CCC56C)C4(C)CO)OCC(O)C3O)C2O)C(O)C1OC(C)=O (stereo not given),AC50,INS1,5.67 µM (active)
same,IC50,[1],> 35 µM (not active)
same,IC50,[2],> 35 µM (not active)
CC1=C(C(=O)OC2CCCCCCC2)C(c2ccc(O)cc2)NC(=O)N1 (stereo not given),EC50,[3],23.9 µM (active)
same,EC50,[4],> 120 µM (not active)
same,IC50,[5],41.9 µM (not active)
same,EC50,[6],21.1 µM (active)
COC(=O)c1cc(C(=O)Nc2nnc(C3CC3)s2)cc([N+](=O)[O-])c1,IC50,Fatty acid synthase [7],9.7 µM (active)
same,IC50,Fatty acid synthase [8],13.8 µM (active)
same,EC50,[9],3.02 µM (active)
COc1ccc(OC)c(NC(=O)CSc2nc3ccccc3cc2Cc2ccccc2)c1,EC50,[10],> 195 µM (not active)
same,IC50,Ephrin type-A receptor 4,> 100 µM (not active)
O=C(c1ccco1)c1cn(Cc2ccc(Cl)cc2)c2ccccc12,IC50,[1],9.22 µM (active)
same,IC50,[2],6.69 µM (active)
O=C1/C(=C\c2nc3ccccc3[nH]2)SC(=S)N1c1ccc(F)cc1,IC50,Ephrin type-A receptor 4,> 100 µM (not active)
Cc1cc(=O)[nH]c(SCC(=O)Nc2nc3c(s2)CCCC3)n1,IC50,Estrogen receptor beta [11],> 50 µM (not active)
OC1c2c(F)cccc2N=C2CCCCN21 (stereo not given),CC50,Vero,> 200 µM (active)
CC1=CC2(O)OCCN(CCO)C2=CC1=O (stereo not given),IC50,Estrogen receptor beta [12],< 0.023 µM (not active)
same,EC50,Protein RecA,10.2 µM (active)
same,IC50,[13],22.3 µM (active)
same,AC50,[14],16.9 µM (active)
same,IC50,[15],> 100 µM (inactive)
O=C(CCCn1c(=S)[nH]c2cc3c(cc2c1=O)OCO3)N1CCc2ccccc2C1,IC50,Estrogen receptor beta [11],> 50 µM (not active)
Cn1nc(C(=O)Nc2sccc2C(N)=O)ccc1=O,IC50,Estrogen receptor beta [12],> 50 µM (not active)
CCOc1ccc(NC(=O)c2cc3ccccc3cc2OC)cc1,EC50,[9],2.17 µM (active)
